Source: PubChem BioAssay AID1963841 (Molecular Pharmacology Branch, DTP, NCI, 2024)
pIC50: −log10 of the molar value.

System: 439559-082-T-J2-PDC spheroid viability
Assay: Anticancer human tumor 439559-082-T-J2-PDC patient-derived colon adenocarcinoma cell line growth inhibition [POLQ]
Details: spheroids with HUVEC and MSC; for pIC50: curve of first compound; for viability, T/C: stronger effect = lower value
Outline: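 Three-cell-type spheroids modelling solid tumor plus stroma served as the readout system; POL inhibitors were tested individually and in combination, concentration ranges set by clinical Cmax where known.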

[1] = second compound 0.0316 µM, first compound 0.0316 µM
[2] = second compound 0.0316 µM, first compound 0.1 µM
[3] = second compound 0.0316 µM, first compound 0.316 µM
[4] = second compound 0.0316 µM, first compound 1 µM
[5] = second compound 0.0316 µM, first compound 3.16 µM
[6] = second compound 0.0316 µM, first compound 10 µM
[7] = second compound 0.1 µM, first compound 0.0316 µM
[8] = second compound 0.1 µM, first compound 0.1 µM
[9] = second compound 0.1 µM, first compound 0.316 µM
[10] = second compound 0.1 µM, first compound 1 µM
[11] = second compound 0.1 µM, first compound 3.16 µM
[12] = second compound 0.1 µM, first compound 10 µM
[13] = second compound 0.316 µM, first compound 0.0316 µM
[14] = second compound 0.316 µM, first compound 0.1 µM
[15] = second compound 0.316 µM, first compound 0.316 µM
[16] = second compound 0.316 µM, first compound 1 µM
[17] = second compound 0.316 µM, first compound 3.16 µM
[18] = second compound 0.316 µM, first compound 10 µM
[19] = second compound 1 µM, first compound 0.0316 µM
[20] = second compound 1 µM, first compound 0.1 µM
[21] = second compound 1 µM, first compound 0.316 µM
[22] = second compound 1 µM, first compound 1 µM
[23] = second compound 1 µM, first compound 3.16 µM
[24] = second compound 1 µM, first compound 10 µM
[25] = second compound 3.16 µM, first compound 0.0316 µM
[26] = second compound 3.16 µM, first compound 0.1 µM
[27] = second compound 3.16 µM, first compound 0.316 µM
[28] = second compound 3.16 µM, first compound 1 µM
[29] = second compound 3.16 µM, first compound 3.16 µM
[30] = second compound 3.16 µM, first compound 10 µM
[31] = second compound 10 µM, first compound 0.0316 µM
[32] = second compound 10 µM, first compound 0.1 µM
[33] = second compound 10 µM, first compound 0.316 µM
[34] = second compound 10 µM, first compound 1 µM
[35] = second compound 10 µM, first compound 3.16 µM
[36] = second compound 10 µM, first compound 10 µM
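Note: spheroids exposed to compounds for seven days before readout.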
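Throughout, for viability, T/C: 100% = DMSO vehicle control viability.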

With `CNCc1ccc(-c2[nH]c3cc(F)cc4c3c2CCNC4=O)cc1` + COC1C(OC(N)=O)C(O)C(Oc2ccc3c(O)c(NC(=O)c4ccc(O)c(CC=C(C)C)c4)c(=O)oc3c2C)OC1(C)C the pIC50 (second compound 0.0316 µM) was less than 5.00, the pIC50 (second compound 0.1 µM) was less than 5.00 and the pIC50 (second compound 0.316 µM) was less than 5.00. For the same compound, the pIC50 (second compound 1 µM) was less than 5.00, the pIC50 (second compound 3.16 µM) was less than 5.00 and the pIC50 (second compound 10 µM) was less than 5.00. For the same compound, the viability, T/C [1] was 103%, the viability, T/C [2] was 98.7% and the viability, T/C [3] was 99.4%. The viability, T/C [4] was 101%, the viability, T/C [5] was 106% and the viability, T/C [6] was 102%. For the same compound, the viability, T/C [7] was 101%, the viability, T/C [8] was 107% and the viability, T/C [9] was 91.7%. It also gave a viability, T/C [10] of 99.7%, a viability, T/C [11] of 105% and a viability, T/C [12] of 108%. For the same compound, the viability, T/C [13] was 104%, the viability, T/C [14] was 96% and the viability, T/C [15] was 98.3%. The viability, T/C [16] was 108%, the viability, T/C [17] was 110% and the viability, T/C [18] was 105%. For the same compound, the viability, T/C [19] was 108%, the viability, T/C [20] was 103% and the viability, T/C [21] was 106%. For the same compound, the viability, T/C [22] was 98.1%, the viability, T/C [23] was 111% and the viability, T/C [24] was 108%. The viability, T/C [25] was 108%, the viability, T/C [26] was 103% and the viability, T/C [27] was 97.4%. The viability, T/C [28] was 95.8%, the viability, T/C [29] was 114% and the viability, T/C [30] was 105%. For the same compound, the viability, T/C [31] was 99.5%, the viability, T/C [32] was 93.7% and the viability, T/C [33] was 95.4%. It also gave a viability, T/C [34] of 104%, a viability, T/C [35] of 115% and a viability, T/C [36] of 98.4%.

`Nc1ccn(C2OC(CO)C(O)C2(F)F)c(=O)n1` (stereo unspecified) + COC1C(OC(N)=O)C(O)C(Oc2ccc3c(O)c(NC(=O)c4ccc(O)c(CC=C(C)C)c4)c(=O)oc3c2C)OC1(C)C gave a pIC50 (second compound 0.0316 µM) of 6.31, a pIC50 (second compound 0.1 µM) of 6.32 and a pIC50 (second compound 0.316 µM) of 6.37. The pIC50 (second compound 1 µM) was 6.40, the pIC50 (second compound 3.16 µM) was 6.35 and the pIC50 (second compound 10 µM) was 6.39. It also gave a viability, T/C [1] of 81.3%, a viability, T/C [2] of 74.4% and a viability, T/C [3] of 55.7%. The viability, T/C [4] was 39.5%, the viability, T/C [5] was 29.8% and the viability, T/C [6] was 25.6%. The viability, T/C [7] was 82.2%, the viability, T/C [8] was 74.3% and the viability, T/C [9] was 54.4%. It also gave a viability, T/C [10] of 39.4%, a viability, T/C [11] of 33% and a viability, T/C [12] of 25.3%. The viability, T/C [13] was 86.1%, the viability, T/C [14] was 76.2% and the viability, T/C [15] was 52.8%. For the same compound, the viability, T/C [16] was 37.5%, the viability, T/C [17] was 33% and the viability, T/C [18] was 25.6%. The viability, T/C [19] was 81.2%, the viability, T/C [20] was 77.7% and the viability, T/C [21] was 49.2%. For the same compound, the viability, T/C [22] was 39.5%, the viability, T/C [23] was 32.6% and the viability, T/C [24] was 25%. It also gave a viability, T/C [25] of 84.5%, a viability, T/C [26] of 73.8% and a viability, T/C [27] of 54.7%. The viability, T/C [28] was 38.5%, the viability, T/C [29] was 31.2% and the viability, T/C [30] was 26.7%. For the same compound, the viability, T/C [31] was 83.1%, the viability, T/C [32] was 70% and the viability, T/C [33] was 53%. For the same compound, the viability, T/C [34] was 38.8%, the viability, T/C [35] was 31.6% and the viability, T/C [36] was 26%.

With `O=C(c1cc(Cc2n[nH]c(=O)c3ccccc23)ccc1F)N1CCN(C(=O)C2CC2)CC1` + COC1C(OC(N)=O)C(O)C(Oc2ccc3c(O)c(NC(=O)c4ccc(O)c(CC=C(C)C)c4)c(=O)oc3c2C)OC1(C)C the pIC50 (second compound 0.0316 µM) was less than 5.00, the pIC50 (second compound 0.1 µM) was less than 5.00 and the pIC50 (second compound 0.316 µM) was less than 5.00. It also gave a pIC50 (second compound 1 µM) of less than 5.00, a pIC50 (second compound 3.16 µM) of less than 5.00 and a pIC50 (second compound 10 µM) of less than 5.00. For the same compound, the viability, T/C [1] was 101%, the viability, T/C [2] was 106% and the viability, T/C [3] was 94.4%. It also gave a viability, T/C [4] of 100%, a viability, T/C [5] of 106% and a viability, T/C [6] of 97.4%. The viability, T/C [7] was 105%, the viability, T/C [8] was 102% and the viability, T/C [9] was 100%. The viability, T/C [10] was 96.4%, the viability, T/C [11] was 105% and the viability, T/C [12] was 98.1%. For the same compound, the viability, T/C [13] was 102%, the viability, T/C [14] was 104% and the viability, T/C [15] was 98.9%. The viability, T/C [16] was 92.9%, the viability, T/C [17] was 107% and the viability, T/C [18] was 97.8%. For the same compound, the viability, T/C [19] was 108%, the viability, T/C [20] was 102% and the viability, T/C [21] was 100%. It also gave a viability, T/C [22] of 106%, a viability, T/C [23] of 107% and a viability, T/C [24] of 100%. It also gave a viability, T/C [25] of 107%, a viability, T/C [26] of 109% and a viability, T/C [27] of 94.9%. The viability, T/C [28] was 97%, the viability, T/C [29] was 105% and the viability, T/C [30] was 92.1%. It also gave a viability, T/C [31] of 97.7%, a viability, T/C [32] of 99.3% and a viability, T/C [33] of 102%. The viability, T/C [34] was 102%, the viability, T/C [35] was 116% and the viability, T/C [36] was 91.4%.
